According to patent publication US20250222146A1, “Radiopharmaceuticals Targeting Somatostatin Receptor 2 and Uses Thereof” (RayzeBio, Inc., priority 2023, published 2025):
pKi: −log10 of the molar value. Numbered stars: 1 amine (or outer) side, 2 acyl side, 3 side chain; on linkers, the order of the positions; unused ones are H or OH. Square brackets hold non-standard residues; d marks the D form. Peptide text beside a SMILES is read from it. * marks the point of attachment. DOTA(Lu)NH(CH2)6NHCOCH2 = O=C(CN1CCN2CCN3CCN(CC1)CC(=O)[O][Lu]([O]C(=O)C2)[O]C(=O)C3)NCCCCCCNC(=O)C*; dTrp(βS-Me) = C[C@@H](c1c[nH]c2ccccc12)[C@@H](N)C(=O)O; Phe(3-CONH2) = NC(=O)c1cccc(C[C@H](N)C(=O)O)c1; dTrp(6-F) = N[C@H](Cc1c[nH]c2cc(F)ccc12)C(=O)O; X4 = C[C@@H](c1ccccc1)[C@H](N[*:1])C(=O)[*:2]; Phe(2-CONH2) = NC(=O)c1ccccc1C[C@H](N)C(=O)O; Phe(3R-Me) = C[C@H](c1ccccc1)[C@H](N)C(=O)O; Tyr(3-F) = N[C@@H](Cc1ccc(O)c(F)c1)C(=O)O; X21 = CC(c1ccccc1)[C@H](N[*:1])C(=O)[*:2]; X22 = O=C([C@H](Cc1ccc(O)nc1)N[*:1])[*:2]; 3Pal = N[C@@H](Cc1cccnc1)C(=O)O; 4Pal = N[C@@H](Cc1ccncc1)C(=O)O; NMehCys = CN[C@@H](CCS)C(=O)O

biological target: SSTR2 (Homo sapiens, UniProt P30874); experiment: SSTR binding affinity by radioligand binding competition assay ([125I]-Tyr11-Somatostatin, membrane extracts); conditions: SSTR2 Ki, radioligand competition, [125I]-Tyr11-Somatostatin 0.1 nM, membrane extracts; Ki from IC50 by Cheng Prusoff
Description: Macrocyclic peptides in this invention were tested for binding to SSTR protein by a radioligand binding competition assay. For radioligand binding assay, competition binding is performed in duplicate in the wells of a 96 well plate containing binding buffer (HEPES 25 mM pH 7.4, MgCl2 5 mM, CaCl2 1 mM, BSA 0.5%, Saponine 10 μg/ml)), membrane extracts (0.6 μg protein/well), radiotracer ([125I]-Tyr11-Somatostatin, Perkin Elmer NEX389) and test compound. Nonspecific binding is determined by co-incubation with 200-fold excess of cold competitor (SST28). The samples are incubated in a final volume of 0.1 ml for 60 min at room temperature and then filtered over UniFilter-96 GF/C (Revvity 6055690) filter plates. Filters are washed six times with 0.5 ml of ice-cold washing buffer (HEPES 25 mM pH 7.4, MgCl2 5 mM, CaCl2 1 mM) and 50 μl of Microscint 20 (Packard) are added in each well. The plates are incubated 15 min on an orbital shaker and then counted with a TopCount™ for 1 min/well. For IC50 to Ki determination, the Cheng Prusoff equation is used: Ki=IC50/(1+ [tracer]/Kd). [Tracer] is 0.1 nM as mentioned above.

Sequence of SSTR2 (P30874 whole entry): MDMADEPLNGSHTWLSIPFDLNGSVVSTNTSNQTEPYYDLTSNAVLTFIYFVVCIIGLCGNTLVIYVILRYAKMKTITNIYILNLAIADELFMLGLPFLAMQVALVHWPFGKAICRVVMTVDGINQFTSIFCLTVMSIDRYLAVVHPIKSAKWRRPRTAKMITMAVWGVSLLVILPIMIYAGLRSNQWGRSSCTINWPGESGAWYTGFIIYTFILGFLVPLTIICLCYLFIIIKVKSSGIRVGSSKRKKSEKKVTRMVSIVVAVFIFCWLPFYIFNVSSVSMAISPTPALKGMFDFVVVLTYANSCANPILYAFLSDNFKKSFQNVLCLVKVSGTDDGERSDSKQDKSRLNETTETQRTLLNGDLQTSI

`C[C@@H](O)[C@@H]1NC(=O)[C@H](CCCCN)NC(=O)[C@@H](Cc2c[nH]c3ccccc23)NC(=O)[C@H](Cc2ccc(O)cc2)NC(=O)[C@H](CSCC(=O)NCCCCCCNC(=O)CN2CCN3CCN4CCN(CC2)CC(=O)[O][Lu]([O]C(=O)C3)[O]C(=O)C4)N(C)C(=O)[C@H](Cc2ccccc2)NC1=O` [RB-0003164] and `C[C@@H](O)[C@@H]1NC(=O)[C@H](CCCCN)NC(=O)[C@@H](Cc2c[nH]c3ccccc23)NC(=O)[C@H](Cc2ccc(O)cc2)NC(=O)[C@H](CCCCNC(=O)CCCCCCCNC(=O)CN2CCN3CCN4CCN(CC2)CC(=O)[O][Lu]([O]C(=O)C3)[O]C(=O)C4)N(C)C(=O)[C@H](Cc2ccccc2)NC1=O` [RB-0003296] fall in the same range of pKi: 8.48 to 9.00 for the first, 8.48 to 9.00 for the second.

Compared with `C[C@@H](O)[C@@H]1NC(=O)[C@H](CCCCN)NC(=O)[C@@H](Cc2c[nH]c3ccccc23)NC(=O)[C@H](Cc2ccc(O)cc2)NC(=O)[C@H](CCCCNC(=O)[C@H]2CC[C@H](CNC(=O)CN3CCN4CCN5CCN(CC3)CC(=O)[O][Lu]([O]C(=O)C4)[O]C(=O)C5)CC2)N(C)C(=O)[C@H](Cc2ccccc2)NC1=O` [RB-0003246], `C[C@@H](O)[C@@H]1NC(=O)[C@H](CCCCN)NC(=O)[C@@H](Cc2c[nH]c3ccccc23)NC(=O)[C@H](Cc2ccc(O)cc2)NC(=O)[C@H](CCCCNC(=O)CN2CCN3CCN4CCN(CC2)CC(=O)[O][Lu]([O]C(=O)C3)[O]C(=O)C4)N(C)C(=O)[C@H](Cc2ccccc2)NC1=O` [RB-0003292] is higher in pKi: 8.48 to 9.00 for the first, > 9.00 for the second. The second binds more tightly here.

First: C[C@@H](O)[C@@H]1NC(=O)[C@H](CCCCN)NC(=O)[C@@H](Cc2c[nH]c3ccccc23)NC(=O)[C@H](Cc2ccc(O)cc2)NC(=O)[C@H](CCCCNC(=O)COCCOCCOCCNC(=O)CN2CCN3CCN4CCN(CC2)CC(=O)[O][Lu]([O]C(=O)C3)[O]C(=O)C4)N(C)C(=O)[C@H](Cc2ccccc2)NC1=O [RB-0003248]
Second: C[C@@H](O)[C@@H]1NC(=O)[C@H](CCCCN)NC(=O)[C@@H](Cc2c[nH]c3ccccc23)NC(=O)[C@H](Cc2ccc(O)cc2)NC(=O)[C@H](CCCCNC(=O)COCCOCCNC(=O)CN2CCN3CCN4CCN(CC2)CC(=O)[O][Lu]([O]C(=O)C3)[O]C(=O)C4)N(C)C(=O)[C@H](Cc2ccccc2)NC1=O [RB-0003294]
The pKi of the first is lower: 8.00 to 8.48 for the first, 8.48 to 9.00 for the second. The second binds more tightly here.

In the case of `C[C@@H](O)[C@@H]1NC(=O)[C@H](CCCCN)NC(=O)[C@@H](Cc2c[nH]c3ccccc23)NC(=O)[C@H](Cc2ccc(O)cc2)NC(=O)[C@H](CCCCNC(=O)CCCCC[C@H](NC(=O)CN2CCN3CCN4CCN(CC2)CC(=O)[O][Lu]([O]C(=O)C3)[O]C(=O)C4)C(=O)O)N(C)C(=O)[C@H](Cc2ccccc2)NC1=O` [RB-0003298], the pKi was 8.00 to 8.48.

same assay, conditions: radioligand competition, [125I]-Tyr11-Somatostatin 0.1 nM, membrane extracts; Ki from IC50 by Cheng Prusoff; read-out: SSTR2 Ki

First: C[C@H](c1ccccc1)[C@@H]1NC(=O)[C@H](CCSCC(=O)NCCCCCCNC(=O)CN2CCN3CCN4CCN(CC2)CC(=O)[O][Lu]([O]C(=O)C3)[O]C(=O)C4)N(C)C(=O)[C@H](Cc2ccccc2)NC(=O)[C@H]([C@@H](C)O)NC(=O)[C@H](CCCCN)NC(=O)[C@@H](Cc2c[nH]c3ccccc23)NC1=O [RB-0003137] (cyclo(F[NMehCys](DOTA(Lu)NH(CH2)6NHCOCH2)[Phe(3R-Me)][dW]KT))
Second: C[C@@H](O)[C@@H]1NC(=O)[C@H](CCCCN)NC(=O)[C@@H](Cc2c[nH]c3ccccc23)NC(=O)[C@H](Cc2ccc(O)cc2)NC(=O)[C@H](CCSCC(=O)NCCCCCCNC(=O)CN2CCN3CCN4CCN(CC2)CC(=O)[O][Lu]([O]C(=O)C3)[O]C(=O)C4)N(C)C(=O)[C@H]([C@@H](C)c2ccccc2)NC1=O [RB-0003278] (cyclo(KT[X4][NMehCys](DOTA(Lu)NH(CH2)6NHCOCH2)Y[dW]))
The pKi of the first is higher: > 9.00 for the first, 8.48 to 9.00 for the second. The first binds more tightly here.

First: C[C@@H](O)[C@@H]1NC(=O)[C@H](CCCCN)NC(=O)[C@@H]([C@@H](C)c2c[nH]c3ccccc23)NC(=O)[C@H](Cc2ccc(O)cc2)NC(=O)[C@H](CCSCC(=O)NCCCCCCNC(=O)CN2CCN3CCN4CCN(CC2)CC(=O)[O][Lu]([O]C(=O)C3)[O]C(=O)C4)N(C)C(=O)[C@H](Cc2ccccc2)NC1=O [RB-0003148] (cyclo(F[NMehCys](DOTA(Lu)NH(CH2)6NHCOCH2)Y[dTrp(βS-Me)]KT))
Second: CC(c1ccccc1)[C@@H]1NC(=O)[C@H]([C@@H](C)O)NC(=O)[C@H](CCCCN)NC(=O)[C@@H](Cc2c[nH]c3ccccc23)NC(=O)[C@H](Cc2ccc(O)cc2)NC(=O)[C@H](CCSCC(=O)NCCCCCCNC(=O)CN2CCN3CCN4CCN(CC2)CC(=O)[O][Lu]([O]C(=O)C3)[O]C(=O)C4)N(C)C1=O (stereo partly drawn) [RB-0003281] (cyclo(KT[X21][NMehCys](DOTA(Lu)NH(CH2)6NHCOCH2)Y[dW]))
The pKi of the first is higher: > 9.00 for the first, 8.00 to 8.48 for the second. The first binds more tightly here.

First: C[C@@H](O)[C@@H]1NC(=O)[C@H](CCCCN)NC(=O)[C@@H](Cc2c[nH]c3ccccc23)NC(=O)[C@H](Cc2ccc(O)cc2)NC(=O)[C@H](CCSCC(=O)NCCCCCCNC(=O)CN2CCN3CCN4CCN(CC2)CC(=O)[O][Lu]([O]C(=O)C3)[O]C(=O)C4)N(C)C(=O)[C@H](Cc2cccnc2)NC1=O [RB-0003276] (cyclo([3Pal][NMehCys](DOTA(Lu)NH(CH2)6NHCOCH2)Y[dW]KT))
Second: C[C@@H](O)[C@@H]1NC(=O)[C@H](CCCCN)NC(=O)[C@@H](Cc2c[nH]c3ccccc23)NC(=O)[C@H](Cc2ccc(O)cc2)NC(=O)[C@H](CCSCC(=O)NCCCCCCNC(=O)CN2CCN3CCN4CCN(CC2)CC(=O)[O][Lu]([O]C(=O)C3)[O]C(=O)C4)N(C)C(=O)[C@H](Cc2ccncc2)NC1=O [RB-0003277] (cyclo([4Pal][NMehCys](DOTA(Lu)NH(CH2)6NHCOCH2)Y[dW]KT))
The pKi of the first is lower: 8.00 to 8.48 for the first, 8.48 to 9.00 for the second.

First: C[C@@H](O)[C@@H]1NC(=O)[C@H](CCCCN)NC(=O)[C@@H](Cc2c[nH]c3ccccc23)NC(=O)[C@H](Cc2ccc(O)cc2)NC(=O)[C@H](CCSCC(=O)NCCCCCCNC(=O)CN2CCN3CCN4CCN(CC2)CC(=O)[O][Lu]([O]C(=O)C3)[O]C(=O)C4)N(C)C(=O)[C@H](Cc2ccc(O)nc2)NC1=O [RB-0003279] (cyclo(KT[X22][NMehCys](DOTA(Lu)NH(CH2)6NHCOCH2)Y[dW]))
Second: C[C@@H](O)[C@@H]1NC(=O)[C@H](CCCCN)NC(=O)[C@@H](Cc2c[nH]c3ccccc23)NC(=O)[C@H](Cc2ccc(O)cc2)NC(=O)[C@H](CCSCC(=O)NCCCCCCNC(=O)CN2CCN3CCN4CCN(CC2)CC(=O)[O][Lu]([O]C(=O)C3)[O]C(=O)C4)N(C)C(=O)[C@H](Cc2cccc(C(N)=O)c2)NC1=O [RB-0003306] (cyclo(KT[Phe(3-CONH2)][NMehCys](DOTA(Lu)NH(CH2)6NHCOCH2)Y[dW]))
The pKi of the first is lower: 8.00 to 8.48 for the first, 8.48 to 9.00 for the second.

First: C[C@@H](O)[C@@H]1NC(=O)[C@H](CCCCN)NC(=O)[C@@H](Cc2c[nH]c3ccccc23)NC(=O)[C@H](Cc2ccc(O)c(F)c2)NC(=O)[C@H](CCSCC(=O)NCCCCCCNC(=O)CN2CCN3CCN4CCN(CC2)CC(=O)[O][Lu]([O]C(=O)C3)[O]C(=O)C4)N(C)C(=O)[C@H](Cc2ccccc2)NC1=O [RB-0003280] (cyclo(F[NMehCys](DOTA(Lu)NH(CH2)6NHCOCH2)[Tyr(3-F)][dW]KT))
Second: C[C@@H](O)[C@@H]1NC(=O)[C@H](CCCCN)NC(=O)[C@@H](Cc2c[nH]c3ccccc23)NC(=O)[C@H](Cc2cccc(C(N)=O)c2)NC(=O)[C@H](CCSCC(=O)NCCCCCCNC(=O)CN2CCN3CCN4CCN(CC2)CC(=O)[O][Lu]([O]C(=O)C3)[O]C(=O)C4)N(C)C(=O)[C@H](Cc2ccccc2)NC1=O [RB-0003302] (cyclo(F[NMehCys](DOTA(Lu)NH(CH2)6NHCOCH2)[Phe(3-CONH2)][dW]KT))
The pKi of the first is higher: > 9.00 for the first, 8.00 to 8.48 for the second.

First: C[C@@H](O)[C@@H]1NC(=O)[C@H](CCCCN)NC(=O)[C@@H](Cc2c[nH]c3ccccc23)NC(=O)[C@H](Cc2ccccc2C(N)=O)NC(=O)[C@H](CCSCC(=O)NCCCCCCNC(=O)CN2CCN3CCN4CCN(CC2)CC(=O)[O][Lu]([O]C(=O)C3)[O]C(=O)C4)N(C)C(=O)[C@H](Cc2ccccc2)NC1=O [RB-0003304] (cyclo(F[NMehCys](DOTA(Lu)NH(CH2)6NHCOCH2)[Phe(2-CONH2)][dW]KT))
Second: C[C@@H](O)[C@@H]1NC(=O)[C@H](CCCCN)NC(=O)[C@@H](Cc2c[nH]c3ccccc23)NC(=O)[C@H](Cc2ccc(O)cc2)NC(=O)[C@H](CCSCCC(=O)NCCCCCCNC(=O)CN2CCN3CCN4CCN(CC2)CC(=O)[O][Lu]([O]C(=O)C3)[O]C(=O)C4)N(C)C(=O)[C@H](Cc2ccccc2)NC1=O [RB-0003374]
The pKi of the first is lower: 8.00 to 8.48 for the first, > 9.00 for the second. The second binds more tightly here.

`C[C@@H](O)[C@@H]1NC(=O)[C@H](CCCCN)NC(=O)[C@@H](Cc2c[nH]c3cc(F)ccc23)NC(=O)[C@H](Cc2ccc(O)cc2)NC(=O)[C@H](CCSCC(=O)NCCCCCCNC(=O)CN2CCN3CCN4CCN(CC2)CC(=O)[O][Lu]([O]C(=O)C3)[O]C(=O)C4)N(C)C(=O)[C@H](Cc2ccccc2)NC1=O` [RB-0003309] (cyclo(F[NMehCys](DOTA(Lu)NH(CH2)6NHCOCH2)Y[dTrp(6-F)]KT)) and `C[C@H](O)[C@@H]1NC(=O)[C@H](CCCCN)NC(=O)[C@@H](Cc2c[nH]c3ccccc23)NC(=O)[C@H](Cc2ccc(O)cc2)NC(=O)[C@H](CCSCC(=O)NCCOCCOCCOCCNC(=O)CN2CCN3CCN4CCN(CC2)CC(=O)[O][Lu]([O]C(=O)C3)[O]C(=O)C4)N(C)C(=O)[C@H](Cc2ccccc2)NC1=O` [RB-0003357] cannot be ordered by pKi: > 9.00 for the first, > 9.00 for the second.
